# Measured values as given in patent US20240197666A1, “DITERPENOID COMPOUNDS THAT ACT ON PROTEIN KINASE C (PKC)” (K-Gen Therapeutics, Inc., priority 2021, published 2024).
# Where two headings read alike, the source gives them in different places.
# Columns and labels:
# [1] = test system: A549 cell line; assay: Proliferation of A549 (CellTiter Glo); assay type: cell-based; details: read-out: IC50 μM (A549 Cell Line)
# Description: (§1) The diterpenoid compounds were tested in A549, a non-small cell lung cancer cell line harboring a K-Ras activating mutation. Briefly, A549 cells at a density of 1,000 cells/well were seeded in 96-well plates and incubated at 37° C. for 24 hours. A series of different concentrations of compound stocks (500×) were prepared by 3-fold serial dilution in DMSO. These compounds were further diluted in culture media and then added to cells so that the final DMSO concentration was not exceeding 0.25%. After 96 hours of incubation, 50 μL of CellTiter Glo reagent (Promega) was added to each well and luminescence was measured after 10 minutes using EnVision (PerkinElmer). Luminescence from cells treated with DMSO alone was set as Max and % of inhibition was calculated as follows: Inhibition %=(Max-Sample value)/Max×100. Data was analyzed using XL-fit software (ID Business Solutions Ltd.) and IC50, relative IC50, and % of top inhibition was calculated. Some of the compounds in this disclosure were very potent in blocking proliferation of A549 lung cancer cells at low nM range. In addition, potency of inhibiting A549 proliferation correlated well with its binding affinity to PKCs for this series of compounds. In other words, higher affinity binders had stronger inhibitory effects on A549 proliferation. This further support the notion that activation, rather than inhibition, of certain PKC isoforms is required to block proliferation of cancer cells, some of which may harbor K-Ras mutations. This is in sharp contrast to previous literature and common belief that inhibition of PKC is necessary to block cancer cell growth (Kang, 2014, New Journal of Science, 2014:1-36). Data presented here is in agreement with recent findings that many loss-of-function but not gain-of-function mutations of PKC isoforms have been identified in many human cancers (Antal et al., 2015, Cell, 160:489-502).
# [2] = molecular target: T1, C1b domain of human PKD1 (PKCμ) (Homo sapiens, UniProt Q15139); assay: Competitive 3H-PDBu binding assay, C1b domain of PKD1 (PKCμ); details: 3H-PDBu competition
# T1 construct: Genes encoding C1b domains of human PKCα, δ, ε, θ, and PKD1 (PKCμ) were synthesized; made in house; host or cells: E. coli BL21(DE3)
# T1 sequence (Q15139 270-320 limits assumed): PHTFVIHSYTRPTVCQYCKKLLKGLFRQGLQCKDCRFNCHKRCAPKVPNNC
# Description: (§2) Compounds described in this disclosure were tested for binding affinity to C1b domain of PKC isoforms. Compound binding affinity to C1b domain of PKC isoforms was derived from competitive binding assay using radioactive tracer ^3H-PDBu and recombinant GST-C1b or full-length of human PKC proteins based on modified procedures from Methods in Molecular Biology, vol.
# (§3) Genes encoding C1b domains of human PKCα, δ, ε, θ, and PKD1 (PKCμ) were synthesized and inserted into pGEX-2TK or pGEX-4T1 vectors for expression and production of GST-C1b proteins in E. coli BL21(DE3) via IPTG induction. The target proteins were purified by glutathione sepharose 4B and followed by ion exchange chromatography if needed to achieve purity >70%. Aliquots of the purified proteins were stored at −80 degree for binding assay (storage buffer: 20 mM Tris pH 8.0, 200 mM NaCl, 10% glycerol, 1 mM DTT).
# (§4) The plate was incubated at 37° C. on a shaker at 300 rpm for 10 minutes and then put on ice for 20 minutes. […] The bottom of the filter plate was sealed and 50 μL of MicroScint-20 (PerkinElmer) cocktail was added to each well. ^3H-PDBu trapped in each well was counted using PerkinElmer MicroBeta2 Reader. Data were analyzed using GraphPad Prism5 with the model “log(inhibitor) vs. response-variable slope” to fit the IC50, and then IC50 was transformed to Ki using Cheng-Prusoff equation: Ki=IC50/(1+added radio ligand/Kd). Kd is the binding affinity of each protein preparation to ^3H-PDBu, determined experimentally.
# [3] = molecular target: T2, C1b domain of human PKCδ (Homo sapiens, UniProt Q05655); assay: biochemical; assay type: binding; details: 3H-PDBu competition
# T2 construct: Genes encoding C1b domains of human PKCα, δ, ε, θ, and PKD1 (PKCμ) were synthesized; made in house; host or cells: E. coli BL21(DE3)
# Description: as §2, §3, §4
# [4] = molecular target: T3, C1b domain of human PKCε (Homo sapiens, UniProt Q02156); assay: biochemical; assay type: binding; details: 3H-PDBu competition
# T3 construct: Genes encoding C1b domains of human PKCα, δ, ε, θ, and PKD1 (PKCμ) were synthesized; made in house; host or cells: E. coli BL21(DE3)
# Description: as §2, §3, §4
# [5] = molecular target: T4, C1b domain of human PKCθ (Homo sapiens, UniProt Q04759); assay: biochemical; assay type: binding; details: 3H-PDBu competition
# T4 construct: Genes encoding C1b domains of human PKCα, δ, ε, θ, and PKD1 (PKCμ) were synthesized; made in house; host or cells: E. coli BL21(DE3)
# T4 sequence (Q04759 231-281 limits assumed): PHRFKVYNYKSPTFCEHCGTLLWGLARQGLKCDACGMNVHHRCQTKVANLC
# Description: as §2, §3, §4
# [6] = test system: Mino (Lymphoma); assay: Proliferation of Mino; assay type: cell-based; details: for IC50: Homo sapiens, MINO, read-out: IC50 Mino (Lymphoma)
# Description: as §1
# (§5) The compounds in this disclosure were tested for their potency in blocking proliferation of a few other cancer cells lines, including K-Ras mutant pancreatic cell lines Panc2.13 and KP-4, leukemia cell line HL-60, and lymphoma cell lines Namalwa and Mino. Similar procedures as in Example 67 were followed. Initial cell numbers seeded in 96-well plates were different for different cell lines: 3000 cells/well for Panc2.13; 800-1000 cells/well for KP-4; 5000 cells/well for HL-60; 5000-10000 cells/well for Namalwa and Mino. A ratio of (IC50 of K101)/(IC50 of compound) (data in parenthesis in Table 5) was used to normalize the compound potency from different assay batches to a common comparator K101.
# [7] = test system: Panc2.13 (Pancreatic); assay: Proliferation of Panc2.13; assay type: cell-based
# Description: as §1, §5
# [8] = test system: HL-60 (Leukemia); assay: Proliferation of HL-60; assay type: cell-based; details: for IC50: Homo sapiens, HL-60, read-out: IC50 HL-60 (Leukemia)
# Description: as §1, §5
# [9] = test system: NFκB-driven transcription in HeLa-NFκB luciferase reporter cell line; assay: NFκB luciferase reporter assay; details: Homo sapiens, HeLa, 16 h, read-out: NFκB-luc HeLa cells EC50 (μM)
# [10] = test system: Namalwa (Lymphoma); assay: Proliferation of Namalwa; assay type: cell-based; details: for IC50: read-out: IC50 Namalwa (Lymphoma)
# Description: as §1, §5
# [11] = test system: KP-4 (Pancreatic); assay: Proliferation of KP-4; assay type: cell-based; details: read-out: IC50 KP-4 (Pancreatic)
# Description: as §1, §5
# T2 sequence (Q05655 230-280 limits assumed): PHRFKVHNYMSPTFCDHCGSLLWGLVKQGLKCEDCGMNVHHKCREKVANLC
# T3 sequence (Q02156 242-292 limits assumed): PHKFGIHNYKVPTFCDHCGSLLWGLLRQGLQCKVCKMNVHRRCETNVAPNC
SMILES,"IC50 ([1]; 96 hours, CellTiter Glo)",Ki [2],Ki [3],Ki [4],Ki [5],"IC50 ([1]; Homo sapiens, A549, 96 h)",ratio (IC50 of K101)/(IC50 of compound) Mino [6],IC50 [6],ratio (IC50 of K101)/(IC50 of compound) Panc2.13 [7],IC50 ([7]; read-out: IC50 Panc2.13 (Pancreatic)),ratio (IC50 of K101)/(IC50 of compound) HL-60 [8],IC50 [8],EC50 [9],ratio (IC50 of K101)/(IC50 of compound) Namalwa [10],IC50 ([10]; 96 h),IC50 [11],IC50 [10]
"CCCCCCCCCCCCCC(=O)O[C@@H]1[C@@H](C)[C@@]2(O)[C@@H](C=C(CO)C[C@]3(O)C(=O)C(C)=C[C@@H]23)[C@@H]2C(C)(C)[C@]12OC(C)=O [Compound K103, 12-O-Tetradecanoylphorbol-13-acetate, reference compound]",< 0.01 µM,< 5 nM,< 5 nM,< 5 nM,< 5 nM,–,–,–,–,–,–,–,–,–,–,–,–
CC1=C[C@H]2[C@@]3(O)[C@H](C)C[C@]4(OC(=O)[C@H](N)CCCCCCCCc5ccccc5)[C@H]([C@@H]3C=C(CO)C[C@]2(O)C1=O)C4(C)C,–,–,10 to 30 nM,10 to 30 nM,10 to 30 nM,0.01 to 0.03 µM,–,–,–,–,–,–,–,–,–,–,–
CC1=C[C@H]2[C@@]3(O)[C@H](C)C[C@]4(OC(=O)C5CC6(C5)CN(C(=O)OC(C)(C)C)C6)[C@H]([C@@H]3C=C(CO)C[C@]2(O)C1=O)C4(C)C,–,–,10 to 30 nM,–,10 to 30 nM,0.1 to 0.2 µM,–,–,–,–,–,–,–,–,–,–,–
CC1=C[C@H]2[C@@]3(O)[C@H](C)C[C@]4(OC(=O)[C@@H](N)CCc5ccccc5)[C@H]([C@@H]3C=C(CO)C[C@]2(O)C1=O)C4(C)C,–,–,–,–,10 to 30 nM,0.1 to 0.2 µM,3.18,10 to 30 nM,4.28,200 to 600 nM,3.21,100 to 200 nM,0.1 to 0.2 µM,0.93,100 to 600 nM,100 to 200 nM,–
CC1=C[C@H]2[C@@]3(O)[C@H](C)C[C@]4(OC(=O)CCC5CCCC5)[C@H]([C@@H]3C=C(CO)C[C@]2(O)C1=O)C4(C)C,–,–,–,–,10 to 30 nM,0.03 to 0.06 µM,11,1 to 10 nM,–,–,9.23,30 to 60 nM,0.06 to 0.1 µM,1.73,–,–,30 to 60 nM
CC1=C[C@H]2[C@@]3(O)[C@H](C)C[C@]4(OC(=O)CC5CC6(C5)CN(C(=O)OC(C)(C)C)C6)[C@H]([C@@H]3C=C(CO)C[C@]2(O)C1=O)C4(C)C,–,–,–,10 to 30 nM,10 to 30 nM,0.03 to 0.06 µM,–,–,–,–,–,–,–,–,–,–,–
